Results: ChEMBL document CHEMBL5247662, “Design, syntheses and biological evaluation of natural product aiphanol derivatives and analogues: Discovery of potent anticancer agents” (Bioorg Med Chem Lett, 2023)

Columns and labels:
Type in all cases: functional, cell-based
HCT-116 = assay: Antiproliferative activity against human HCT-116 cells assessed as inhibition of cell growth measured after 48 hrs by CCK-8 assay; settings: HCT-116, 48 h
HT-29 = assay: Antiproliferative activity against human HT-29 cells assessed as inhibition of cell growth measured after 48 hrs by CCK-8 assay; settings: HT-29, 48 h
Bel-7402 = assay: Antiproliferative activity against human Bel-7402 cells assessed as inhibition of cell growth measured after 48 hrs by CCK-8 assay; settings: Bel-7402, 48 h
HepG2 = assay: Antiproliferative activity against human HepG2 cells assessed as inhibition of cell growth measured after 48 hrs by CCK-8 assay; settings: HepG2, 48 h
KYSE-30 = assay: Antiproliferative activity against human KYSE-30 cells expressing luciferase assessed as inhibition of cell growth measured after 48 hrs by CCK-8 assay; settings: KYSE-30, 48 h
MCF7 = assay: Antiproliferative activity against human MCF7 cells assessed as inhibition of cell growth measured after 48 hrs by CCK-8 assay; settings: MCF7, 48 h
AGS = assay: Antiproliferative activity against human AGS cells assessed as inhibition of cell growth measured after 48 hrs by CCK-8 assay
SW1990 = assay: Antiproliferative activity against human SW1990 cells assessed as inhibition of cell growth measured after 48 hrs by CCK-8 assay; settings: SW1990, 48 h

IC50 (HCT-116)	IC50 (HT-29)	SMILES	further results
7.16 µM	4.63 µM	COc1cc([C@@H]2Oc3cc(/C=C/c4ccc([N+](=O)[O-])cc4)ccc3O[C@H]2CO)cc(OC)c1O	
17.1 µM	33 µM	COc1cc([C@@H]2Oc3cc(/C=C/c4ccccn4)ccc3O[C@H]2CO)cc(OC)c1O	
2.02 µM	2.42 µM	COc1cc([C@@H]2Oc3cc(/C=C/c4ccc(C#N)cc4)ccc3O[C@H]2CO)cc(OC)c1O	IC50 (Bel-7402): 0.86 µM; IC50 (HepG2): 2.23 µM; IC50 (KYSE-30): 2.97 µM; IC50 (MCF7): 1.21 µM; IC50 (AGS): 0.81 µM; IC50 (SW1990): 1.52 µM
42.2 µM	22.9 µM	COc1cc([C@@H]2Oc3cc(/C=C/c4ccsc4)ccc3O[C@H]2CO)cc(OC)c1O	
8.83 µM	14.9 µM	COc1cc([C@@H]2Oc3cc(/C=C/c4ccc5ccccc5n4)ccc3O[C@H]2CO)cc(OC)c1O	
3.86 µM	4.4 µM	COc1cc(C2Oc3cc(/C=C/c4nc(C)c5ccccc5n4)ccc3OC2CO)cc(OC)c1O (single isomer, unassigned)	
12.4 µM	9.14 µM	COc1cc([C@@H]2Oc3cc(/C=C/c4ccccc4)ccc3O[C@H]2CO)cc(OC)c1O	
12.4 µM	14.8 µM	COc1cc([C@@H]2Oc3cc(/C=C/c4ccccc4C#N)ccc3O[C@H]2CO)cc(OC)c1O	
11.4 µM	13.5 µM	COc1cc([C@@H]2Oc3cc(/C=C/c4cccc(C#N)c4)ccc3O[C@H]2CO)cc(OC)c1O	
16.7 µM	19.1 µM	COc1cc([C@@H]2Oc3cc(-c4ccccc4)ccc3O[C@H]2CO)cc(OC)c1O	
27.2 µM	25.1 µM	COc1cc([C@@H]2Oc3cc(/C=C/c4ccc(C(F)(F)F)cc4)ccc3O[C@H]2CO)cc(OC)c1O	
> 100 µM	> 100 µM	COc1cc([C@@H]2Oc3ccccc3O[C@H]2CO)cc(OC)c1O	
> 100 µM	> 100 µM	COc1cc([C@@H]2Oc3cc(C=O)ccc3O[C@H]2CO)cc(OC)c1O	
28.3 µM	25 µM	COc1cc([C@@H]2Oc3cc(/C=C/c4ccc(I)cc4)ccc3O[C@H]2CO)cc(OC)c1O	
> 100 µM	> 100 µM	COc1cc([C@@H]2Oc3cc(/C=C/c4ccc(NC(C)=O)cc4)ccc3O[C@H]2CO)cc(OC)c1O	

Continued, compound first:

SMILES	IC50 (HCT-116)	IC50 (HT-29)	further results
COc1cc([C@@H]2Oc3cc(/C=C/c4cc(O)cc(O)c4)ccc3O[C@H]2CO[C@@H]2O[C@H](CO)[C@H](O)[C@H](O)[C@H]2O)cc(OC)c1O	> 200 µM	> 200 µM	
OC[C@@H]1Oc2ccc(/C=C/c3cc(O)cc(O)c3)cc2O[C@H]1c1cc(Cl)c(O)c(Cl)c1	> 50 µM	55.3 µM	
COc1cc([C@@H]2Oc3cc(CCc4cc(O)cc(O)c4)ccc3O[C@H]2CO)cc(OC)c1O	49.8 µM	16.4 µM	
COc1cc([C@@H]2Oc3cc(/C=C/c4cc(O)cc(O)c4)ccc3O[C@H]2CNC(=O)c2ccc(C(F)(F)F)cc2)cc(OC)c1O	11.6 µM	8.84 µM	
COc1cc([C@@H]2Oc3cc(/C=C/c4cc(O)cc(O)c4)ccc3O[C@H]2CO)cc(OC)c1O	20 µM	8.36 µM	IC50 (Bel-7402): 64.9 µM; IC50 (HepG2): 39 µM; IC50 (KYSE-30): 61.5 µM; IC50 (MCF7): 45.3 µM; IC50 (AGS): 38.9 µM; IC50 (SW1990): 28.3 µM
COc1ccc(C(=O)NC[C@@H]2Oc3ccc(/C=C/c4cc(O)cc(O)c4)cc3O[C@H]2c2cc(OC)c(O)c(OC)c2)cc1	15.9 µM	16.1 µM	
COc1cc([C@@H]2Oc3cc(/C=C/c4cc(O)cc(O)c4)ccc3O[C@H]2CNC(=O)C(C)C)cc(OC)c1O	33.1 µM	13.9 µM	
COc1cc([C@@H]2Oc3cc(/C=C/c4cc(O)cc(O)c4)ccc3O[C@H]2CNC(=O)c2cc(F)c(F)c(F)c2)cc(OC)c1O	12.3 µM	7.08 µM	
COc1cc([C@@H]2Oc3cc(/C=C/c4cc(O)cc(O)c4)ccc3O[C@H]2CNC(=O)c2ccc(F)c(F)c2)cc(OC)c1O	14.2 µM	15.6 µM	
COc1cc([C@@H]2Oc3cc(/C=C/c4cc(O)cc(O)c4)ccc3O[C@H]2CNC(=O)c2ccccc2)cc(OC)c1O	15.9 µM	19.6 µM	
COc1cc([C@@H]2Oc3cc(/C=C/c4cc(O)cc(O)c4)ccc3O[C@H]2CN)cc(OC)c1O	27 µM	14.1 µM	
OC[C@@H]1Oc2ccc(/C=C/c3cc(O)cc(O)c3)cc2O[C@H]1c1cc(Br)c(O)c(Br)c1	39.7 µM	30.5 µM	
OC[C@@H]1Oc2ccc(/C=C/c3cc(O)cc(O)c3)cc2O[C@H]1c1ccc(O)cc1	> 50 µM	24.1 µM	
COc1cc([C@@H]2Oc3cc(/C=C/c4cc(OC(C)=O)cc(OC(C)=O)c4)ccc3O[C@H]2CO)cc(OC)c1OC(C)=O	30.9 µM	7.92 µM	
COc1cc([C@@H]2Oc3cc(/C=C/c4cc(O)cc(O)c4)ccc3O[C@H]2CNC(=O)c2ccc(F)cc2)cc(OC)c1O	16.8 µM	7.9 µM	
COc1cc([C@@H]2Oc3cc(/C=C/c4cc(O)cc(O)c4)ccc3O[C@H]2CNC(=O)S(C)(=O)=O)cc(OC)c1O	29.5 µM	16.5 µM	
COc1cc([C@@H]2Oc3cc(/C=C/c4cc(O)cc(O)c4)ccc3O[C@H]2CNC(=O)S(=O)(=O)c2ccc(C)cc2)cc(OC)c1O	4.63 µM	5.89 µM	IC50 (Bel-7402): 6.29 µM; IC50 (HepG2): 7.44 µM; IC50 (KYSE-30): 17.9 µM; IC50 (MCF7): 6.31 µM; IC50 (AGS): 4.95 µM; IC50 (SW1990): 9.65 µM
COc1cc([C@@H]2Oc3cc(/C=C/c4cc(OC(C)=O)cc(OC(C)=O)c4)ccc3O[C@H]2COC(C)=O)cc(OC)c1OC(C)=O	19.9 µM	10.4 µM	
COc1cc(/C=C/c2ccc3c(c2)O[C@@H](c2cc(OC)c(O)c(OC)c2)[C@H](CO)O3)cc(OC)c1	16 µM	14 µM	
COc1cc([C@@H]2Oc3cc(/C=C/c4cc(O)cc(O)c4)ccc3O[C@H]2CNC(C)=O)cc(OC)c1O	47.7 µM	8.52 µM	
OC[C@@H]1Oc2ccc(/C=C/c3cc(O)cc(O)c3)cc2O[C@H]1c1cc(F)c(O)c(F)c1	> 50 µM	41.4 µM	
CCCCCCCCCCCCC(=O)NC[C@@H]1Oc2ccc(/C=C/c3cc(O)cc(O)c3)cc2O[C@H]1c1cc(OC)c(O)c(OC)c1	14.5 µM	7.7 µM	
CCOC(=O)/C=C/c1ccc2c(c1)O[C@@H](c1cc(OC)c(O)c(OC)c1)[C@H](CO)O2	> 50 µM	> 50 µM	
COC(=O)c1ccc(/C=C/c2ccc3c(c2)O[C@@H](c2cc(OC)c(O)c(OC)c2)[C@H](CO)O3)cc1	21.2 µM	10.3 µM	
COc1cc([C@@H]2Oc3cc(/C=C/c4cc(O)cc(O)c4)ccc3O[C@H]2CO[C@@H]2O[C@H](CO)[C@@H](O)[C@H](O)[C@H]2O)cc(OC)c1O	> 200 µM	> 200 µM	
